# Results taken from US10716829B2, “Method and composition for treatment of hair loss” (NATIONAL HEALTH RESEARCH INSTITUTES, priority 2015, dated 2020).
# Test system: bulge keratinocytes (CD34+α6+)
# Experiment: Colony forming assay on sorted CD34+α6+ bulge keratinocytes in absence or presence of DAPT
# Format: cell-based, mouse
# Conditions: 10 μM for 7 days, cultured with feeders, vs DMSO-treated cultures; keratinocytes from 8-week-old wild type mice
# Method: FIG. 5 is a graph showing quantification of a colony forming assay on sorted CD34+α6+ keratinocytes in the absence or presence of DAFT. Equal numbers of sorted CD34±α6+ keratinocytes from 8-week-old wild type mice were cultured with feeders and treated with either DMSO as a vehicle control or 10 μM DAFT for 7 days. […] P<0.05, **:P<0.01.
# We investigated whether the DSB signal seen in Pofut1/Tgfb3-Cre hair follicles was caused by aberrant cell proliferation, which has been reported in the case of oncogene-induced DNA damage checkpoint responses. To test this hypothesis, bulge keratinocytes were isolated from 8 weeks old wild type mice by FACS and cultured in the absence or presence of a γ-secretase inhibitor DAPT (Notch signaling inhibitor).
structure (smiles),measurement,value
C[C@H](NC(=O)Cc1cc(F)cc(F)c1)C(=O)N[C@H](C(=O)OC(C)(C)C)c1ccccc1 [DAPT],numbers of colonies,increases
same,size of colonies,increases
